In patent publication US20060024392A1, “Compositions and methods for enhancing the effectiveness of a chemotherapeutic agent” (priority 2004, published 2006):

Tested on: NCM460 normal colon cells
Assay: Sulforhodamine B (SRB) cell growth assay in NCM460 normal colon cells
Type: cell-based, human
Experimental: HT-29, a cell line derived from colorectal adenocarcinoma (ATCC, HTB 38), grows in McCoy's 5A medium (Biowhittaker, Inc. Walkersville, Md.). NCM460, a cell line derived from a normal human colon (InCell Corp. San Antonio, Tex.), grows in M3 Base media (InCell Corp. San Antonio, Tex.).
Both cell lines are kept at 37° C. and 5% CO2 atmosphere. Both media are supplemented with 10% fetal bovine serum (FBS, Biowhittaker, Inc. Walkersville, Md.).
Cells are fixed in situ by the gentle addition of 50 μl of cold 50% (w/v) TCA (final concentration, 10% TCA) and incubated for 60 minutes at 4° C. The supernatant is discarded, and the plates are washed five times with tap water and air dried. Sulforhodamine B (SRB) solution (100 μl) at 0.4% (w/v) in 1% acetic acid is added to each well, and plates are incubated for 10 minutes at room temperature. After staining, unbound dye is removed by washing five times with 1% acetic acid and the plates are air dried. Bound stain is subsequently solubilized with 100 μl 10 mM trizma base for 5 minutes, and the absorbance at wavelength of 490 nm was spectrophotometrically measured using a microplate reader Elx800 (Bio-Tek instruments, Inc.).
Cells were seeded in 96-well cluster tissue culture plates (Costar), containing 100 μl complete growth medium per well at densities of 5,000 cells per well. Incubated at 37° C. in a humidified tissue culture incubator. After 24 Hour, 100 μl complete medium containing 5 half-log dilutions of the 5FU from 2*10^−4 to 2*10^−6 M was added into each well (final concentrations are from 10^−4 to 10^−6 M). Six replicates were used for each concentration. Media containing 0.125% DMSO was used as control. After 48 hours of incubation with 5FU in medium, cell proliferation was assessed using the SRB assay.
Percentage growth (Growth%) is calculated as: [(Ti−Tz)/(C−Tz)]×100 [absorbance measurements at time zero (Tz), control growth (C), and test growth in the presence of drug at the different concentration levels (Ti)].
Growth inhibition of 50% (GI50) is calculated from [(Ti−Tz)/(C−Tz)]×100=50, which is the drug concentration resulting in a 50% reduction in the net protein increase (as measured by SRB staining) in control cells during the drug incubation.
Similar method as Experiment 1 was used, except cells were exposed to 5FU at concentration ranging from 10^−4.5 to 10^−7 M. Media containing 0.01% DMSO was used as control. Lower concentrations were used since it was observed that 0.1% DMSO inhibited the growth of NCM460 cells. The experiment was repeated 5 times.
The protocol was the same as Experiment 3, except cells were exposed to 5FU at concentration ranging from 10^−5 to 10^−7 M with chokeberry ARE at concentration of 5, 15.6, 50 μg monomeric anthocyanin/ml growth media. […] Differences in response are most evident at the 5 FU concentration of 10^−6 M and ARE concentration of 15.6 μg monomeric anthocyanin/ml. In normal cells, there is no difference in the percent growth by 5FU with or without ARE, whereas in colon cancer cells, growth with 5FU alone was 80% of control, and further reduced to 40% with ARE and 5 FU.

O=c1[nH]cc(F)c(=O)[nH]1 [5FU, 5-fluorouracil] showed a Growth % (5FU 1.0E−4.5 M, experiment 1) of 45.13%, an OD (5FU 1.0E−4.5 M, experiment 1) of 0.264 and a Growth % (5FU 1.0E−4.5 M, experiment 2) of 33.85%. For the same molecule, the OD (5FU 1.0E−4.5 M, experiment 2) was 0.242, the Growth % (5FU 1.0E−4.5 M, experiment 3) was 36.70% and the OD (5FU 1.0E−4.5 M, experiment 3) was 0.256. The Growth % (5FU 1.0E−5 M, experiment 1) was 53.85%, the OD (5FU 1.0E−5 M, experiment 1) was 0.281 and the Growth % (5FU 1.0E−5 M, experiment 2) was 48.21%. It also gave an OD (5FU 1.0E−5 M, experiment 2) of 0.27, a Growth % (5FU 1.0E−5 M, experiment 3) of 45.41% and an OD (5FU 1.0E−5 M, experiment 3) of 0.275. It also gave a Growth % (5FU 1.0E−5 M, experiment 4) of 57.58%, an OD (5FU 1.0E−5 M, experiment 4) of 0.285 and a Growth % (5FU 1.0E−5 M, experiment 5) of 51.41%. For the same molecule, the OD (5FU 1.0E−5 M, experiment 5) was 0.279, the Growth % (5FU 1.0E−5.5 M, experiment 1) was 55.38% and the OD (5FU 1.0E−5.5 M, experiment 1) was 0.284. For the same molecule, the Growth % (5FU 1.0E−5.5 M, experiment 2) was 67.69%, the OD (5FU 1.0E−5.5 M, experiment 2) was 0.308 and the Growth % (5FU 1.0E−5.5 M, experiment 3) was 60.55%. The OD (5FU 1.0E−5.5 M, experiment 3) was 0.308, the Growth % (5FU 1.0E−5.5 M, experiment 4) was 75.38% and the OD (5FU 1.0E−5.5 M, experiment 4) was 0.332. The Growth % (5FU 1.0E−5.5 M, experiment 5) was 72.54%, the OD (5FU 1.0E−5.5 M, experiment 5) was 0.339 and the Growth % (5FU 1.0E−6 M, experiment 1) was 56.41%. It also gave an OD (5FU 1.0E−6 M, experiment 1) of 0.286, a Growth % (5FU 1.0E−6 M, experiment 2) of 63.08% and an OD (5FU 1.0E−6 M, experiment 2) of 0.299. For the same molecule, the Growth % (5FU 1.0E−6 M, experiment 3) was 66.06%, the OD (5FU 1.0E−6 M, experiment 3) was 0.32 and the Growth % (5FU 1.0E−6 M, experiment 4) was 93.56%. It also gave an OD (5FU 1.0E−6 M, experiment 4) of 0.38, a Growth % (5FU 1.0E−6 M, experiment 5) of 87.32% and an OD (5FU 1.0E−6 M, experiment 5) of 0.381. It also gave a Growth % (5FU 1.0E−6.5 M, experiment 1) of 59.49%, an OD (5FU 1.0E−6.5 M, experiment 1) of 0.292 and a Growth % (5FU 1.0E−6.5 M, experiment 2) of 83.59%. For the same molecule, the OD (5FU 1.0E−6.5 M, experiment 2) was 0.339, the Growth % (5FU 1.0E−6.5 M, experiment 3) was 78.44% and the OD (5FU 1.0E−6.5 M, experiment 3) was 0.347. For the same molecule, the Growth % (5FU 1.0E−6.5 M, experiment 4) was 97.35%, the OD (5FU 1.0E−6.5 M, experiment 4) was 0.39 and the Growth % (5FU 1.0E−6.5 M, experiment 5) was 92.61%. The OD (5FU 1.0E−6.5 M, experiment 5) was 0.396, the Growth % (5FU 1.0E−7 M, experiment 4) was 99.62% and the OD (5FU 1.0E−7 M, experiment 4) was 0.396. The Growth % (5FU 1.0E−7 M, experiment 5) was 89.79% and the OD (5FU 1.0E−7 M, experiment 5) was 0.388.
